Reference: patent US6881409B2, “Compositions and methods for promoting nerve regeneration” (Oregon Health and Science University, priority 1997, dated 2005)

System: SH-SY5Y human neuroblastoma cells
Assay: Neurite outgrowth (neuritic process length) of NGF-differentiated SH-SY5Y cells
Assay type: cell-based
Description: Cell cultures. SH-SY5Y human neuroblastoma cells were maintained in DMEM medium (GIBCO) supplemented with 10% fetal calf serum (SIGMA), 50 IU/mL penicillin, and […] streptomycin (GIBCO) at 37° C. in 7% CO^2. Cells were plated in six-well plates at 1×10^6 cells/well and treated with […] aphidicolin (SIGMA). At five days, cells were washed, treated with nerve growth factor (NGF) (Boehringer Mannheim, Indianapolis, Ind.) at 10 ng/mL (to induce process outgrowth) in the presence or absence of FK506 (1 and 10 nM) (Calbiochem-Novabiochem Int'l., La Jolla, Calif.) and/or geldanamycin (0.1, 1, and 10 nM) (Calbiochem-Novabiochem, La Jolla, Calif.). Media was changed at 96 hours and replaced with fresh media with the compounds (NGF plus FK506 and/or geldanamycin) for an additional 72 hours (total time, 168 hours). The top 50% of axonal lengths were selected for statistical analysis. All experiments were run in duplicate wells and repeated at least twice for reproducibility.
Light morphometry of neurite lengths. For analysis of process length, cells 20 fields per well) were randomly photographed at 72 and 168 hours. Neurite lengths were measured on photographic prints using a Houston Instrument HI-PAD digitizing tablet connected to an IBM XT computer with appropriate software (Bioquant IV, R&M Biometrics, Nashville, Tenn.); only those processes greater than two times the cell body length were measured. Data from identically treated wells were not different and were therefore combined. […] Histograms were compared using a Mann-Whitney U test, which makes no assumptions about the shape of the distribution.
Preparation of FK506 and geldanamycin. FK506 (mol. wt. 822) and geldanamycin (mol. wt. 561) were dissolved in DMEM medium.
In a first set of experiments, SH-SY5Y neuroblastoma cells were plated in 6-well plates with DMEM plus 15% FCS and differentiated with NGF (10 ng/ml). The effects of various concentrations of geldanamycin and FK506 on neurite growth, alone and in combination, were tested.

For `C=CC[C@@H]1/C=C(\C)C[C@H](C)C[C@H](OC)[C@H]2O[C@@](O)(C(=O)C(=O)N3CCCC[C@H]3C(=O)O[C@H](/C(C)=C/[C@@H]3CC[C@@H](O)[C@H](OC)C3)[C@H](C)[C@@H](O)CC1=O)[C@H](C)C[C@@H]2OC` [FK506], the Mean Length of Top 50% of Neuritic Processes (Table 1, FK506 10 nM + NGF 10 ng/mL, 168 hours) was 77.8 µm, the Mean Length of Top 50% of Neuritic Processes (Table 2, FK506 1 nM + NGF 10 ng/mL, 168 hours) was 89.9 µm and the Mean Length of Top 50% of Neuritic Processes (Table 2, FK506 10 nM + NGF 10 ng/mL, 168 hours) was 82.7 µm.

Work on `COC1=C2C[C@@H](C)C[C@H](OC)[C@H](O)[C@@H](C)/C=C(\C)[C@H](OC(N)=O)[C@@H](OC)/C=C\C=C(/C)C(=O)NC(=CC1=O)C2=O` [Geldanamycin, geldanamycin] yielded a Mean Length of Top 50% of Neuritic Processes (Table 1, geldanamycin 1 nM + NGF 10 ng/mL, 168 hours) of 64 µm, a Mean Length of Top 50% of Neuritic Processes (Table 1, geldanamycin 10 nM + NGF 10 ng/mL, 168 hours) of 54.8 µm and a Mean Length of Top 50% of Neuritic Processes (Table 2, geldanamycin 0.1 nM + NGF 10 ng/mL, 168 hours) of 98.1 µm. The “effect on length of the processes” value (first set, geldanamycin 10 nM in the presence of NGF) was “no effect”.

With estrogen the “effect on neurite outgrowth with FK506” value (10 nM with FK506 10 nM) was “additive effect” and the “neurite outgrowth” value (10 nM, without NGF) was “increased neurite outgrowth”.

B1: NGF: nerve growth factor (Boehringer Mannheim), used to induce process outgrowth (protein, UniProt P01139 122-241, looked up)
Beta-nerve growth factor: SSTHPVFHMGEFSVCDSVSVWVGDKTTATDIKGKEVTVLAEVNINNSVFRQYFFETKCRASNPVESGCRGIDSKHWNSYCTTTHTFVKALTTDEKQAAWRFIRIDTACVCVLSRKATRRG
For B1, the Mean Length of Top 50% of Neuritic Processes (Table 1 (first set), NGF 10 ng/mL only, 168 hours after treatment) was 54 µm, the Mean Length of Top 50% of Neuritic Processes (Table 2 (second set), NGF 10 ng/mL only, 168 hours) was 70.4 µm and the “mean length of the processes compared to untreated cells” value (first set, NGF 10 ng/mL, 168 hours) was “more than doubled”. The “mean neuritic lengths compared to untreated control cells” value (second set, NGF-treated cells) was “more than double”.
